The first test concerns the target T1, Solute carrier family 12 member 5 (Homo sapiens, UniProt Q9H2X9).
T1 sequence (Q9H2X9 whole entry): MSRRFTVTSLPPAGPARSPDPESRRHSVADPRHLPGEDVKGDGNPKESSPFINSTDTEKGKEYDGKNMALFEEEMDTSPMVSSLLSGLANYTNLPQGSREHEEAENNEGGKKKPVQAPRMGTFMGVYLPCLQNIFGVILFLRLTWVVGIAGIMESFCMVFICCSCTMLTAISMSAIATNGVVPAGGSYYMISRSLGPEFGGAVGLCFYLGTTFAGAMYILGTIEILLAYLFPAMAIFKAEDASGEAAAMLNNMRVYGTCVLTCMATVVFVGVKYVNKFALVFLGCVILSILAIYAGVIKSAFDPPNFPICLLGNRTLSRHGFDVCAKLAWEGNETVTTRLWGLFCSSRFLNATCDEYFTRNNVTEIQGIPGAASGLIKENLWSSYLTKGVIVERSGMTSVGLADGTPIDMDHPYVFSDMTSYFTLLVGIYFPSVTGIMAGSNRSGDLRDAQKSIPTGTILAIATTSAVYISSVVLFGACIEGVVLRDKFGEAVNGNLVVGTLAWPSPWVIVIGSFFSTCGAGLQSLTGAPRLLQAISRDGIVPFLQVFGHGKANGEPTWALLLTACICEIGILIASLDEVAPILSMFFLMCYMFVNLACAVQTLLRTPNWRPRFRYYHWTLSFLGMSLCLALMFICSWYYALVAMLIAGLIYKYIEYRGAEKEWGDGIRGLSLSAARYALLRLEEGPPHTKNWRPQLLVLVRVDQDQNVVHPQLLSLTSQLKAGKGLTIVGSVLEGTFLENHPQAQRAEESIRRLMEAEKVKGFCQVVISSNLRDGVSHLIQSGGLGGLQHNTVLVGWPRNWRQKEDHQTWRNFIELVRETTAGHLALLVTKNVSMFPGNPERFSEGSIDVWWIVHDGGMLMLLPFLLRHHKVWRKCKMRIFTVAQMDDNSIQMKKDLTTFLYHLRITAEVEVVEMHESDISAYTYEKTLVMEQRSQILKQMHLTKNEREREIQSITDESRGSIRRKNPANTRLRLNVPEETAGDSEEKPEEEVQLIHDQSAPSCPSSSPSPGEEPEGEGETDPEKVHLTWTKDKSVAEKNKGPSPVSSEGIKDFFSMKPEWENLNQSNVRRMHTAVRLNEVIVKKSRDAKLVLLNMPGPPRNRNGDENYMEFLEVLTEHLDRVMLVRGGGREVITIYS
In words: KCC2 modulator potency by thallium flux, dose response, cell-based, HEK293 KCC2, FluoZin-2 fluorescence (AID 1736).
Details: not given
What is called EC50 is the midpoint of the concentration-response curve. The low end stands for greater potency, the high end for weaker potency. The compound `CC(C)(CN=C(S)NCCc1ccccc1)CN=C(S)NCCc1ccccc1` [1-[2,2-dimethyl-3-(2-phenylethylcarbamothioylamino)propyl]-3-(2-phenylethyl)thiourea] yielded an EC50 of 16.7 µM.

With `CCOC(=O)c1cc2c(ccn2C)n1CC(=O)N1CCC(Cc2ccccc2)CC1` [1-[2-(4-Benzyl-piperidin-1-yl)-2-oxo-ethyl]-4-methyl-1,4-dihydro-pyrrolo[3,2-b]pyrrole-2-carboxylic acid ethyl ester], a half-maximal response (EC50) required 10.8 µM. This EC50 is about 1.5-fold lower than that of the compound before.

`Cc1ccc2oc(-c3ccc(C)c(NC(=S)NC(=O)c4cccs4)c3)nc2c1` [1-[2-Methyl-5-(5-methyl-benzooxazol-2-yl)-phenyl]-3-(thiophene-2-carbonyl)-thiourea] registered an EC50 of 0.761 µM.

`S=C(NCCc1ccccc1)NN=Cc1cccc(Cl)c1Cl` [1-[(2,3-dichlorobenzylidene)amino]-3-phenethyl-thiourea] gave a concentration giving a half-maximal response (EC50) of 22.7 µM.

Consider `Fc1cccc(F)c1C=NNC(=S)Nc1cccnc1` [1-[(2,6-difluorobenzylidene)amino]-3-(3-pyridyl)thiourea], for which a half-maximal response (EC50) required 9.24 µM.

In turn, `NC(=S)NN=C1C(=O)N(Cc2ccc(F)cc2)c2ccccc21` [1-[(Z)-[1-[(4-fluorophenyl)methyl]-2-oxidanylidene-indol-3-ylidene]amino]thiourea] returned a concentration for a half-maximal effect (EC50) of 7.98 µM. The EC50 values of the last two compounds are within 1.5-fold of each other.

With `Cc1ccc(-c2noc(CN3CCN(Cc4ccccc4)CC3)n2)cc1` [1-benzyl-4-{[3-(4-methylphenyl)-1,2,4-oxadiazol-5-yl]methyl}piperazine], the EC50 was determined as 7.58 µM. This EC50 and that of the compound before are within 1.5-fold of each other.

In turn, `O=C(CSc1ccc(-c2ccccc2)nn1)c1ccccc1` [1-phenyl-2-(6-phenylpyridazin-3-yl)sulfanyl-ethanone] had a half-maximal effective concentration (EC50) of 1.06 µM. Against the preceding compound, the EC50 is about 7.2-fold lower.

As to `CC1CCN(C(=O)c2ccc(SCc3ccccc3F)c([N+](=O)[O-])c2)CC1` [1-{4-[(2-fluorobenzyl)thio]-3-nitrobenzoyl}-4-methylpiperidine], the EC50 worked out at 42.6 µM.

In the case of `O=C(c1ccc(S(=O)(=O)c2cccc(Cl)c2)c([N+](=O)[O-])c1)N1CCN(c2ccccn2)CC1` [1-{4-[(3-chlorophenyl)sulfonyl]-3-nitrobenzoyl}-4-pyridin-2-ylpiperazine], a half-maximal response (EC50) required 2.55 µM.

`O=C(NC(=S)Nc1nc(-c2cccc([N+](=O)[O-])c2)cs1)c1cc(Cl)ccc1Cl` [2,5-bis(chloranyl)-N-[[4-(3-nitrophenyl)-1,3-thiazol-2-yl]carbamothioyl]benzamide]: the half-maximal effective concentration (EC50) turned out to be 10.8 µM.

Compound `Cc1ccc(C)c(C(=O)NC(C)CCc2ccccc2)c1` (stereo not given) [2,5-dimethyl-N-(1-methyl-3-phenyl-propyl)benzamide] had an EC50 of 7.74 µM.

With `CCn1nnnc1SCC(=O)Nc1nc(-c2cccs2)cs1` [2-(1-Ethyl-1H-tetrazol-5-ylsulfanyl)-N-(4-thiophen-2-yl-thiazol-2-yl)-acetamide], the EC50 turned out to be 3.74 µM.

Regarding `Cn1c(CSc2nc3ccccc3s2)nc2ccccc21` [2-(1-Methyl-1H-benzoimidazol-2-ylmethylsulfanyl)-benzothiazole], the EC50 is 439 µM.

As to `C=CCNc1oc(Cc2cccc3ccccc23)nc1C#N` [2-(1-naphthalenylmethyl)-5-(prop-2-enylamino)-4-oxazolecarbonitrile], the EC50 is 4.49 µM.

`O=C(CN1C(=O)NC2(CCCC2)C1=O)Nc1nc(-c2ccc(F)cc2)cs1` [2-(2,4-diketo-1,3-diazaspiro[4.4]nonan-3-yl)-N-[4-(4-fluorophenyl)thiazol-2-yl]acetamide] returned a concentration giving a half-maximal response (EC50) of 0.156 µM.

Turning to `N#Cc1nc(-c2ccco2)oc1N1CCN(Cc2ccccc2)CC1` [2-(2-furanyl)-5-[4-(phenylmethyl)-1-piperazinyl]-4-oxazolecarbonitrile], the concentration giving a half-maximal response (EC50) amounted to 12 µM.

Compound `O=C(COC(=O)c1cc([N+](=O)[O-])ccc1NCCO)c1ccccc1` [2-(2-hydroxyethylamino)-5-nitro-benzoic acid phenacyl ester] registered an EC50 of 31.1 µM.

The compound `Cc1cc(C)c(C#N)c(N2CCN(Cc3ccccc3)CC2)n1` [2-(4-benzyl-1-piperazinyl)-4,6-dimethylnicotinonitrile] displayed an EC50 of 8.18 µM.

`O=C(Cn1nc(-c2ccccc2)ccc1=O)NCc1ccc2c(c1)OCO2` [2-(6-keto-3-phenyl-pyridazin-1-yl)-N-piperonyl-acetamide] displayed a concentration for a half-maximal effect (EC50) of 1.94 µM.

For `O=C(Cn1cnc2c(nnn2-c2ccccc2)c1=O)NCCc1ccccc1` [2-(7-keto-3-phenyl-triazolo[4,5-d]pyrimidin-6-yl)-N-phenethyl-acetamide], it took 2.52 µM to reach a half-maximal effect (EC50).

In the case of `O=C(COC(=O)c1cc([N+](=O)[O-])ccc1NCc1ccccc1)NC1CCCCC1` [2-(benzylamino)-5-nitro-benzoic acid [2-(cyclohexylamino)-2-keto-ethyl] ester], it took 0.481 µM to reach a half-maximal effect (EC50). This EC50 lies about 5.2-fold lower than the previous one.

With `O=C(O)c1cc([N+](=O)[O-])ccc1NCc1ccccc1` [2-(benzylamino)-5-nitro-benzoic acid], the EC50 stood at 1490 µM. This EC50 lies about 3100-fold higher than the previous one.

Compound `O=[N+]([O-])c1ccc(CSc2nnc(SCc3ccccc3)s2)cc1` [2-(benzylthio)-5-[(4-nitrobenzyl)thio]-1,3,4-thiadiazole] yielded an EC50 of 2.06 µM.

The compound `CCc1ccc(OCCNC(=O)c2ccccc2SCc2ccccc2)cc1` [2-(benzylthio)-N-[2-(4-ethylphenoxy)ethyl]benzamide] registered an EC50 of 35.2 µM.

For the compound `COc1ccc(S(=O)(=O)N2CCC(C(=O)N3CCc4ccccc4C3)CC2)cc1C` [2-({1-[(4-methoxy-3-methylphenyl)sulfonyl]-4-piperidinyl}carbonyl)-1,2,3,4-tetrahydroisoquinoline], the midpoint of the response, the EC50, lay at 4.98 µM.

Regarding `Cn1nccc1C(=O)OCC(=O)Nc1nc(-c2ccccc2)cs1` [2-Methyl-2H-pyrazole-3-carboxylic acid (4-phenyl-thiazol-2-ylcarbamoyl)-methyl ester], a half-maximal effect (EC50) was put at 6.08 µM.

In the case of `O=C(CSc1nnnn1-c1ccc(Cl)cc1)N1CCc2ccccc2C1` [2-[1-(4-chlorophenyl)tetrazol-5-yl]sulfanyl-1-(3,4-dihydro-1H-isoquinolin-2-yl)ethanone], the EC50 was 1.42 µM.

`O=C1Nc2ccc([N+](=O)[O-])cc2OC1CCN1CCN(Cc2ccccc2)CC1` (stereo not given) [2-[2-(4-benzylpiperazin-1-yl)ethyl]-7-nitro-4H-1,4-benzoxazin-3-one] showed an EC50 of 4.2 µM.

For `O=C(CSc1ccccc1C(=O)NCc1ccccc1)NC1CCCCCCC1` [2-[2-(cyclooctylamino)-2-oxidanylidene-ethyl]sulfanyl-N-(phenylmethyl)benzamide], the response was half-maximal at 1.65 µM (EC50).

On to `NC(=O)COc1ccccc1/C=C1/SC(=O)N(CC(=O)N2CCc3ccccc3C2)C1=O` [2-[2-({3-[2-(3,4-dihydro-2(1H)-isoquinolinyl)-2-oxoethyl]-2,4-dioxo-1,3-thiazolidin-5-ylidene}methyl)phenoxy]acetamide], for which a half-maximal effect (EC50) was put at 10800 µM.

As to `CCc1ccc(Nc2nnc(SCC(=O)Nc3sccc3C(N)=O)s2)cc1` [2-[2-[[5-[(4-ethylphenyl)amino]-1,3,4-thiadiazol-2-yl]sulfanyl]ethanoylamino]thiophene-3-carboxamide], a half-maximal response (EC50) required 3.54 µM. Against the preceding compound, the EC50 is about 3100-fold lower.

Still in this test, the particulars now being: inactive by the depositor's call.
Compound `O=C(COc1ccc2ccccc2c1Br)Nn1cnnc1` [2-(1-bromanylnaphthalen-2-yl)oxy-N-(1,2,4-triazol-4-yl)ethanamide] gave an EC50 of 459 µM.

In turn, `O=C(CSC1=NCCS1)Nc1nc(-c2ccccc2)cs1` [2-(4,5-dihydro-1,3-thiazol-2-ylsulfanyl)-N-(4-phenyl-1,3-thiazol-2-yl)acetamide] displayed an EC50 of 1890 µM.

For `COc1ccc(-c2nnc(-c3ccc(OCC(C)C)cc3)o2)cc1` [2-(4-Isobutoxy-phenyl)-5-(4-methoxy-phenyl)-[1,3,4]oxadiazole], the EC50 was determined as 0.00127 µM.

`Cc1nc(N2CCN(Cc3ccccc3)CC2)nc2c1C(=O)CCC2` [2-(4-benzylpiperazin-1-yl)-4-methyl-7,8-dihydro-6H-quinazolin-5-one] came in with an EC50 of 8.64 µM. This EC50 lies about 6800-fold higher than the previous one.

`Cc1ccc(N(CC(=O)NCCSc2ccccn2)S(=O)(=O)c2ccc(F)cc2)cc1` [2-(N-(4-fluorophenyl)sulfonyl-4-methyl-anilino)-N-[2-(2-pyridylthio)ethyl]acetamide] registered an EC50 of 2.87 µM.

In turn, `COn1c(SC2CCCCC2)nc2ccccc2c1=O` [2-(cyclohexylthio)-3-methoxy-4-quinazolinone] registered an EC50 of 82.6 µM.

For the compound `CCc1ccc(-c2nc(C[S+]([O-])CC(=O)NCc3cccnc3)c(C)o2)cc1` (stereo not given) [2-({[2-(4-ethylphenyl)-5-methyl-1,3-oxazol-4-yl]methyl}sulfinyl)-N-(pyridin-3-ylmethyl)acetamide], it took 38.3 µM to reach a half-maximal effect (EC50).

For `O=C(Cn1nc(-c2ccccc2F)ccc1=O)NCc1ccc2c(c1)OCO2` [2-[3-(2-fluorophenyl)-6-keto-pyridazin-1-yl]-N-piperonyl-acetamide], the EC50 worked out at 8.27 µM.
